Tested on: T1, F1 ^anc_core
T1 construct: gene atpD; alpha: TF1 residues 1-94 + alpha^anc NBD/CTD; beta: TF1 residues 1-78 + beta^anc NBD/CTD; N-terminal His-tags; alpha3beta3gamma; expressed in E. coli JM103 delta-unc; with ATP synthase gamma chain
Experiment: single-molecule rotation assay, […] nm gold colloid, Michaelis-Menten fit
Assay type: biochemical, synthetic construct
Details: 50 mM Hepes-KOH pH 7.5, 100 mM KCl

Km (5 mM MgCl2, room temperature) [µM]	Km (5 mM MgCl2, ATP-regenerating system, room temperature) [µM]	SMILES
0.68	–	Nc1ncnc2c1ncn2[C@@H]1O[C@H](COP(=O)(O)OP(=O)(O)OP(O)(O)=S)[C@@H](O)[C@H]1O [ATPγS]
–	2.6	Nc1ncnc2c1ncn2[C@@H]1O[C@H](COP(=O)(O)OP(=O)(O)OP(=O)(O)O)[C@@H](O)[C@H]1O [ATP]

From paper PMC12550136, “Functional and structural characterization of F1 ‐ATPase with common ancestral core domains in stator ring” (Protein Science : A Publication of the Protein Society, 2025)
